One series can be described thus: Solubility in water. The series is classed as physicochemical.
In series [1] the test system is human vaginal epithelial cells of the A-431 cell line. The series is classed as cell-based. On the procedure: Test of totarol impact on the human vaginal epithelial cells of the A-431 cell line (ATCC® The study was carried out using the following test: Annexin-V-Fluos (Roche, Mannheim, Germany), during incubation for 2, 8 and 24 hours, under in vitro conditions, according to the instructions of the test's manufacturer. The totarol sample was prepared by dissolution of 3 mg of totarol in 3 ml of 100% DMI.
The cultivation time for the A-431 cell line was 20 days. The culture was carried out at a temperature of 37° C. in an atmosphere containing 10% CO2, on a DMEM culture medium (Institute of Immunology and Experimental Therapy PAS [IITD PAN], Wroclaw), with an addition of 10% of foetal bovine serum (FBS, Sigma-Aldrich). The culture fluid were being replaced regularly every 48 hours. After achieving a decantable growth or the so-called “monolayer”, the cells were passaged using (for approx. 10 min) 0.25% trypsin (Sigma-Aldrich). Then, the obtained tissue line was passed to 24-well plates (TPP), adjusting their densities to the value of 5×10^5 per well. The tissue culture of the studied lines was carried out for 3 next days on the surface of sterile microscope slides placed on the bottom of a 24-well plate, until a decantable growth was obtained on the surface of the microscope slides. After obtaining the so-called “monolayer”, the cells were washed with PBS without Ca^2+ and Mg^2+ ions (IITD PAN, Wroclaw), and poured with 700 µl of fresh DMEM medium with 10% FBS, together with 300 μl of properly prepared totarol. • Negative control: 1000 μl of fresh DMEM medium with 10% FBS. • Solvent control: 700 μl of fresh DMEM medium with 10% FBS+300 μl of DMI solvent. • Necrosis positive control: 900 μl of fresh DMEM medium with 10% FBS+100 μl H2O2 (30%). The proper examination using the Annexin-V-Fluos test causes green staining of apoptotic cells. […] This dye has an ability to penetrate the cell's interior freely only through a damaged cellular membrane, staining the interior red. In the case of a lack of damages of the cellular membrane, propidium iodide remains on its surface, forming a characteristic red “halo” around the cell. After a corresponding study time, i.e. 2, 8, and 24 hours, the culture fluid was removed, the content was washed with PBS (pre-heated to a temperature of 37° C.) twice. Then, 100 μl of the fluorescent stains mixture including in the Annexin-V-Fluos (Roche) kit were applied on the surface of each microscope slide (placed in a culture well) and additionally, Hoechst stain was used (cellular DNA staining). The staining procedure was carried out according to the manufacturer's recommendations. The culture together with the stains applied onto it were incubated at room temperature for 20 min. The intensity of light emitted by the cells stained with the individual stains was observed using a fluorescent microscope at the wavelength of 494-520 nm, using 400× magnification. The cells were counted in five visual fields, and the results were averaged. The reliability of the tests carried out is confirmed by hydrogen peroxide used as a positive control, causing a distinct necrosis process already after 2 hours of incubation. Data analyses were carried out on the basis of the average number of cells from five visual fields in the individual times (2, 8, and 24 h). The results are presented in Table 6 and in the form of photographic documentation—FIGS. 1, 2, 3, 4.

Like-named read-outs stand apart in the source and are kept apart here.

Consider `CC(C)c1c(O)ccc2c1CC[C@H]1C(C)(C)CCC[C@]21C` [Totarol, totarol], for which the solubility in water result in the series “Solubility in water” is recorded as “complete lack of solubility in water”. Further, in series [1], the “apoptosis and necrosis in epithelial cells, photographic documentation” value is “No apoptosis and necrosis”; the “apoptotic and necrotic impact on human vaginal epithelial A-431 cells” value was “lack of apoptotic and necrotic impact”. In series [1] (human, 2 h, 0.3 mg/mL), this compound registered an Alive cells of 100, an Apopt. cells of 0 and a Necrot. cells of 0. Further, in series [1] (human, 8 h, 0.3 mg/mL), the Alive cells is 100, the Apopt. cells is recorded as 0 and the Necrot. cells was 0. Further, in series [1] (human, 24 h, 0.3 mg/mL), the Alive cells amounted to 100, the Apopt. cells came out at 0 and the “Necrot. Cells” value stood at 0.

Values taken from US11534412B2, “Application of totarol and pharmaceutical composition containing totarol” (Emergopharm SP. Z O.O. SP.K., priority 2017, dated 2022).
